Like-named read-outs stand apart in the source and are kept apart here.
Experiments:
[1] = system: HIV-1NL4-3; assay: HIV-1 infectivity assay in TZM-bl reporter cell line (LTR-luciferase, 48 h); assay type: cell-based; conditions: Human immunodeficiency virus 1, TZM-bl
Procedure, shortened: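 Luciferase read-out 48 h post-infection; compound at 1 μM during HIV-1NL4-3 infection of TZM-bl cells. Percent inhibition scaled to DMSO wild-type virus (0%) and DMSO Nef-defective virus (100% of Nef-dependent effect). Viability checked separately in uninfected cells by Cell Titer Blue.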

[2] = biological target: HIV-1 NefNL4-3 (Human immunodeficiency virus type 1 group M subtype B, UniProt P03406, A33V/T15A/T51N/V11I); assay: Surface plasmon resonance binding to recombinant full-length Nef (NL4-3); conditions: for RU30/RUNef (extent of binding): response units at 30 μM relative to Nef immobilized on the SPR chip; for Nef NL4-3 Binding, SPR 1:1 or 2-site fitting KD1: 1:1 Langmuir fit where the KD2 cell says '1 to 1 fitting', else 2-site fit
[3] = system: TZM-bl cell line; assay type: cell-based; conditions: human, 1 μM
Procedure, shortened: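 TZM-bl cells (HIV-1 LTR-luciferase) infected with HIV-1NL4-3 with compound at 1 μM; luciferase read 48 h later. Percent inhibition normalized to DMSO wild-type infection (0%) and Nef-defective HIV-1 infection (100% of Nef-dependent effect). Viability in uninfected TZM-bl cells by Cell Titer Blue.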

[4] = 1.0 μM, TZM-bl reporter cell line, Table 4, read-out: % Infectivity Inhibition
[5] = 48 h, Table 1, TZM-bl cells, 1 μM, 48 h, 100% = Nef-defective HIV-1, read-out: HIV-1 Infectivity % Inhibition Norm. to Δ-Nef @ 1 μM
[6] = KD, M, Table 4, SPR fit 2-step induced fit, KD = koff/kon × koff2/(koff2 + kon2)
[7] = Nef NL4-3 Binding, SPR 2-state fitting KD, Table 1, 2-step induced-fit model
[8] = Table 4, 2-step induced fit, T = 1/koff2
[9] = read-out: Nef NL4-3 Binding, SPR 1:1 or 2-site fitting KD2, Table 1, 2-site fit, second component
[10] = Nef NL4-3 Binding, SPR 1:1 or 2-site fitting KD2, Table 1, 2-site fit, second component
[11] = KD, M, Table 4, SPR fit 1:1 Langmuir, KD = koff/kon
[12] = Table 4, 1:1 Langmuir fit, T = 1/koff

SMILES: Oc1c(CCC2CCNCC2)c(-c2ccc(C(F)(F)F)cc2)nn1-c1nc2ccccc2[nH]1 [Compound I-552, 1-(1H-1,3-benzodiazol-2-yl)-4-[2-(piperidin-4-yl)ethyl]-3-[4-(trifluoromethyl)phenyl]-1H-pyrazol-5-ol]
- inhibition at 1 µM [1, 4]: 50.5%
- inhibition at 1 µM [1, 5]: 50.5%
- Kd [2]: 554 nM
- Kd [2, 6]: 1040 nM
- Kd [2, 7]: 749 nM
- T, minutes (residence time) [2, 8]: 2.17E + 01 minutes
- Kd [2, 9]: 16500 nM
- RU30/RUNef (extent of binding) [2]: 1.04E- 02
- % Cell Viability [3]: 91.4%
- Percent Viability @ 1 μM (TZM-bl cells) [3]: 91.4%

SMILES: CC(C)(C)OC(=O)N1CCC[C@H]1c1nn(-c2nc3ccccc3[nH]2)c(O)c1CCc1ccc(F)cc1 (stereo in doubt) [Compound I-205, tert-butyl 2-[1-(1H-1,3-benzodiazol-2-yl)-4-[2-(4-fluorophenyl)ethyl]-5-hydroxy-1H-pyrazol-3-yl]pyrrolidine-1-carboxylate]
- inhibition at 1 µM [1, 4]: 14.3%
- inhibition at 1 µM [1, 5]: 14.3%
- Kd [2]: 1090 nM
- Kd [2, 6]: 208 nM
- Kd [2, 10]: 1100 nM
- Kd [2, 7]: 208 nM
- T, minutes (residence time) [2, 8]: 9.98E + 01 minutes
- RU30/RUNef (extent of binding) [2]: 5.81E- 03
- % Cell Viability [3]: 95.6%
- Percent Viability @ 1 μM (TZM-bl cells) [3]: 95.6%

SMILES: CC(=O)N1CCC(c2nn(-c3nc4cc(Cl)ccc4[nH]3)c(O)c2CCn2nccn2)CC1 [Compound I-704, 1-{4-[1-(5-chloro-1H-1,3-benzodiazol-2-yl)-5-hydroxy-4-[2-(2H-1,2,3-triazol-2-yl)ethyl]-1H-pyrazol-3-yl]piperidin-1-yl}ethan-1-one]
- inhibition at 1 µM [1, 4]: 6.6%
- inhibition at 1 µM [1, 5]: 6.6%
- Kd [2]: 3620 nM
- Kd [2, 11]: 3620 nM
- T, minutes (residence time) [2, 12]: 7.61E + 00 minutes
- RU30/RUNef (extent of binding) [2]: 1.92E- 03
- % Cell Viability [3]: 99.4%
- Percent Viability @ 1 μM (TZM-bl cells) [3]: 99.4%

SMILES: CC(C)(C)OC(=O)NCc1nn(-c2nc3ccccc3[nH]2)c(O)c1CCc1ccc(F)cc1 [Compound I-212, tert-butyl N-{[1-(1H-1,3-benzodiazol-2-yl)-4-[2-(4-fluorophenyl)ethyl]-5-hydroxy-1H-pyrazol-3-yl]methyl}carbamate]
- inhibition at 1 µM [1, 5]: 50.9%
- Kd [2]: 538 nM
- Kd [2, 10]: 1480 nM
- Kd [2, 7]: 2320 nM
- Percent Viability @ 1 μM (TZM-bl cells) [3]: 92.9%

SMILES: Oc1c(CCc2ccc(F)cc2)c(C2CCCO2)nn1-c1nc2ccccc2[nH]1 (centres unmarked) [Compound I-136, 1-(1H-1,3-benzodiazol-2-yl)-4-[2-(4-fluorophenyl)ethyl]-3-(oxolan-2-yl)-1H-pyrazol-5-ol]
- inhibition at 1 µM [1, 4]: 26.5%
- inhibition at 1 µM [1, 5]: 26.5%
- Kd [2]: 160 nM
- Kd [2, 6]: 2460 nM
- Kd [2, 7]: 2460 nM
- T, minutes (residence time) [2, 8]: 3.32E + 00 minutes
- Kd [2, 9]: 4770 nM
- RU30/RUNef (extent of binding) [2]: 5.11E- 03
- % Cell Viability [3]: 99.9%
- Percent Viability @ 1 μM (TZM-bl cells) [3]: 99.9%

SMILES: O=C(c1cnccn1)N1CCCC(c2nn(-c3nc4ccccc4[nH]3)c(O)c2CCc2ccc(F)cc2)C1 (centres unmarked) [Compound I-756, 1-(1H-1,3-benzodiazol-2-yl)-4-[2-(4-fluorophenyl)ethyl]-3-[1-(pyrazine-2-carbonyl)piperidin-3-yl]-1H-pyrazol-5-ol]
- inhibition at 1 µM [1, 5]: 34.3%
- Nef NL4-3 Binding, SPR 1:1 or 2-site fitting KD1 ([2]; Table 1): No Interaction
- Percent Viability @ 1 μM (TZM-bl cells) [3]: 101.9%

SMILES: Oc1c(CCc2ccc(F)cc2)c(-c2ccc(C(F)(F)F)cn2)nn1-c1nc2cccnc2[nH]1 [Compound I-302, 4-[2-(4-fluorophenyl)ethyl]-1-{3H-imidazo[4,5-b]pyridin-2-yl}-3-[5-(trifluoromethyl)pyridin-2-yl]-1H-pyrazol-5-ol]
- inhibition at 1 µM [1, 4]: 0%
- inhibition at 1 µM [1, 5]: -2.4%
- Kd [2]: 3610 nM
- Kd [2, 11]: 3610 nM
- T, minutes (residence time) [2, 12]: 8.82E + 00 minutes
- RU30/RUNef (extent of binding) [2]: 1.66E- 03
- % Cell Viability [3]: 98.9%
- Percent Viability @ 1 μM (TZM-bl cells) [3]: 98.9%

SMILES: O=C(OCc1ccccc1)N1CCCC(Cc2nn(-c3nc4ccccc4[nH]3)c(O)c2CCc2ccc(F)cc2)C1 (centres unmarked) [Compound I-773, benzyl 3-{[1-(1H-1,3-benzodiazol-2-yl)-4-[2-(4-fluorophenyl)ethyl]-5-hydroxy-1H-pyrazol-3-yl]methyl}piperidine-1-carboxylate]
- inhibition at 1 µM [1, 5]: 25.5%
- Kd [2]: 55.9 nM
- Percent Viability @ 1 μM (TZM-bl cells) [3]: 101.8%

SMILES: Oc1c(CCc2ccc(F)cc2)c(C2CCN(CC(F)(F)F)CC2)nn1-c1nc2ccccc2[nH]1 [Compound I-1003, 1-(1H-1,3-benzodiazol-2-yl)-4-[2-(4-fluorophenyl)ethyl]-3-[1-(2,2,2-trifluoroethyl)piperidin-4-yl]-1H-pyrazol-5-ol]
- inhibition at 1 µM [1, 5]: 42.3%
- Kd [2]: 1810 nM
- Percent Viability @ 1 μM (TZM-bl cells) [3]: 100.9%

SMILES: Oc1c(CCc2ccc(F)cc2)c(CC2CCN(CC(F)(F)F)CC2)nn1-c1nc2ccccc2[nH]1 [Compound I-1004, 1-(1H-1,3-benzodiazol-2-yl)-4-[2-(4-fluorophenyl)ethyl]-3-{[1-(2,2,2-trifluoroethyl)piperidin-4-yl]methyl}-1H-pyrazol-5-ol]
- inhibition at 1 µM [1, 4]: 0%
- inhibition at 1 µM [1, 5]: -12.3%
- Kd [2]: 354 nM
- Kd [2, 11]: 354 nM
- T, minutes (residence time) [2, 12]: 2.82E + 01 minutes
- RU30/RUNef (extent of binding) [2]: 2.27E- 03
- % Cell Viability [3]: 100%
- Percent Viability @ 1 μM (TZM-bl cells) [3]: 101.3%

SMILES: Oc1c(CC2CCOCC2)c(-c2ccccc2)nn1-c1nc2ccccc2[nH]1 [Compound I-183, 1-(1H-1,3-benzodiazol-2-yl)-4-[(oxan-4-yl)methyl]-3-phenyl-1H-pyrazol-5-ol]
- inhibition at 1 µM [1, 4]: 37.8%
- Kd [2, 11]: 2270 nM
- T, minutes (residence time) [2, 12]: 7.61E + 00 minutes
- RU30/RUNef (extent of binding) [2]: 1.71E- 03
- % Cell Viability [3]: 100%

SMILES: CC(=O)N1CCCC(Cc2c(C3CC3)nn(-c3nc4ccccc4[nH]3)c2O)C1 (centres unmarked) [Compound I-780, 1-(3-{[1-(1H-1,3-benzodiazol-2-yl)-3-cyclopropyl-5-hydroxy-1H-pyrazol-4-yl]methyl}piperidin-1-yl)ethan-1-one]
- inhibition at 1 µM [1, 4]: 0%
- Kd [2, 11]: 4070 nM
- T, minutes (residence time) [2, 12]: 8.13E + 00 minutes
- RU30/RUNef (extent of binding) [2]: 4.47E- 03
- % Cell Viability [3]: 99%

SMILES: COC(=O)N1CCC(c2nn(-c3nc4cc(Cl)ccc4[nH]3)c(O)c2CCn2nccn2)CC1 [Compound I-705, methyl 4-[1-(5-chloro-1H-1,3-benzodiazol-2-yl)-5-hydroxy-4-[2-(2H-1,2,3-triazol-2-yl)ethyl]-1H-pyrazol-3-yl]piperidine-1-carboxylate]
- inhibition at 1 µM [1, 5]: -13.8%
- Kd [2]: 1110 nM
- Percent Viability @ 1 μM (TZM-bl cells) [3]: 100.9%

SMILES: CC(=O)N1CCC(CCc2c(-c3ccc(C(F)(F)F)cn3)nn(-c3nc4cc(Br)ccc4[nH]3)c2O)CC1 [Compound I-709, 1-(4-{2-[1-(5-bromo-1H-1,3-benzodiazol-2-yl)-5-hydroxy-3-[5-(trifluoromethyl)pyridin-2-yl]-1H-pyrazol-4-yl]ethyl}piperidin-1-yl)ethan-1-one]
- inhibition at 1 µM [1, 4]: 66.7%
- inhibition at 1 µM [1, 5]: 66.7%
- Kd [2]: 26.3 nM
- Kd [2, 11]: 26.3 nM
- T, minutes (residence time) [2, 12]: 5.18E + 02 minutes
- RU30/RUNef (extent of binding) [2]: 8.85E- 04
- % Cell Viability [3]: 74.0%
- Percent Viability @ 1 μM (TZM-bl cells) [3]: 74.0%

SMILES: O=C(OCc1ccccc1)N1CCC(c2c(-c3ccc(C(F)(F)F)cc3)nn(-c3nc4ccccc4[nH]3)c2O)CC1 [Compound I-164, benzyl 4-[1-(1H-1,3-benzodiazol-2-yl)-5-hydroxy-3-[4-(trifluoromethyl)phenyl]-1H-pyrazol-4-yl]piperidine-1-carboxylate]
- inhibition at 1 µM [1, 5]: 64.9%
- Nef NL4-3 Binding, SPR 1:1 or 2-site fitting KD1 ([2]; Table 1): No Interaction
- Percent Viability @ 1 μM (TZM-bl cells) [3]: 93.6%

From patent publication US20220380341A1, “INHIBITORS OF HIV-1 NEF FOR THE TREATMENT OF HIV DISEASE” (priority 2018, published 2022)
